# Experimental data reported in patent publication US20060247129A1, “Surfactant compounds and agrochemical compositions” (Imperial Chemical Industries PLC, priority 2003, published 2006).
# How the values were obtained:
# Assay in all cases: glasshouse herbicide spray test, % weed control, adjuvant with glyphosate potassium salt
# Assay type in all cases: in vivo
# Settings in all cases: 19 days after treatment
# [1] = system: Abutilon Theophrasti
# Method: (§1) The compound of Synthesis Example SE1 was tested as an adjuvant with glyphosate potassium salt, mixing the glyphosate and adjuvant in a tank mix using concentrations of glyphosate from 0.125 to 2 g.l-1 and of adjuvant from 0.003125 to 0.2% v/v. The tank mixes were sprayed as a herbicide on a variety of test species at an application rate of 200 l.ha^−1 to give application rates of glyphosate of from 25 to 400 g (active ingredient).ha^−1. The plants were grown in a warm glasshouse and assessed 19 days after treatment for % control—the mean of three replicates for visually assessed % weed control, relative to unsprayed plants of each species in the same test.
# (§2) Example AE1 was repeated but using the compound made in Synthesis Example SE4 as the adjuvant.
# [2] = system: Echinochloa crus-galli
# Method: as §1, §2
# [3] = system: Portulaca oleracea
# Method: as §1, §2
# [4] = system: Sida Spinosa
# Method: as §1, §2
# [5] = system: Solanum nigra
# Method: as §1, §2
# [6] = system: Sorghum halepense
# Method: as §1, §2
# [7] = glyphosate 50 g ai/ha, adjuvant 0.003125 % v/v
# [8] = glyphosate 50 g ai/ha, adjuvant 0.0125 % v/v
# [9] = glyphosate 50 g ai/ha, adjuvant 0.05 % v/v
# [10] = glyphosate 50 g ai/ha, adjuvant 0.2 % v/v
# [11] = glyphosate 100 g ai/ha, adjuvant 0.003125 % v/v
# [12] = glyphosate 100 g ai/ha, adjuvant 0.0125 % v/v
# [13] = glyphosate 100 g ai/ha, adjuvant 0.05 % v/v
# [14] = glyphosate 100 g ai/ha, adjuvant 0.2 % v/v
# [15] = glyphosate 200 g ai/ha, adjuvant 0.003125 % v/v
# [16] = glyphosate 200 g ai/ha, adjuvant 0.0125 % v/v
# [17] = glyphosate 200 g ai/ha, adjuvant 0.05 % v/v
# [18] = glyphosate 200 g ai/ha, adjuvant 0.2 % v/v
# [19] = glyphosate 400 g ai/ha, adjuvant 0.003125 % v/v
# [20] = glyphosate 400 g ai/ha, adjuvant 0.0125 % v/v
# [21] = glyphosate 400 g ai/ha, adjuvant 0.05 % v/v
# [22] = glyphosate 400 g ai/ha, adjuvant 0.2 % v/v
# [23] = glyphosate 25 g ai/ha, adjuvant 0.003125 % v/v
# [24] = glyphosate 25 g ai/ha, adjuvant 0.0125 % v/v
# [25] = glyphosate 25 g ai/ha, adjuvant 0.05 % v/v
# [26] = glyphosate 25 g ai/ha, adjuvant 0.2 % v/v
substance,measurement,setting,value
Random 8-ethoxylate-2-propoxylate of N-methyl glucamine C8/C10 glycidyl ether [SE1],% control ABUTH,[1]; [7],33%
same,% control ABUTH,[1]; [8],33%
same,% control ABUTH,[1]; [9],38%
same,% control ABUTH,[1]; [10],27%
same,% control ABUTH,[1]; [11],53%
same,% control ABUTH,[1]; [12],35%
same,% control ABUTH,[1]; [13],43%
same,% control ABUTH,[1]; [14],42%
same,% control ABUTH,[1]; [15],62%
same,% control ABUTH,[1]; [16],66%
same,% control ABUTH,[1]; [17],66%
same,% control ABUTH,[1]; [18],70%
same,% control ABUTH,[1]; [19],81%
same,% control ABUTH,[1]; [20],82%
same,% control ABUTH,[1]; [21],79%
same,% control ABUTH,[1]; [22],83%
same,% control ECHCG,[2]; [23],15%
same,% control ECHCG,[2]; [24],10%
same,% control ECHCG,[2]; [25],22%
same,% control ECHCG,[2]; [26],37%
same,% control ECHCG,[2]; [7],48%
same,% control ECHCG,[2]; [8],47%
same,% control ECHCG,[2]; [9],58%
same,% control ECHCG,[2]; [10],70%
same,% control ECHCG,[2]; [11],85%
same,% control ECHCG,[2]; [12],82%
same,% control ECHCG,[2]; [13],84%
same,% control ECHCG,[2]; [14],89%
same,% control ECHCG,[2]; [15],92%
same,% control ECHCG,[2]; [16],90%
same,% control ECHCG,[2]; [17],93%
same,% control ECHCG,[2]; [18],97%
same,% control POROC,[3]; [7],7%
same,% control POROC,[3]; [8],4%
same,% control POROC,[3]; [9],12%
same,% control POROC,[3]; [10],30%
same,% control POROC,[3]; [11],8%
same,% control POROC,[3]; [12],9%
same,% control POROC,[3]; [13],18%
same,% control POROC,[3]; [14],37%
same,% control POROC,[3]; [15],23%
same,% control POROC,[3]; [16],20%
same,% control POROC,[3]; [17],45%
same,% control POROC,[3]; [18],64%
same,% control POROC,[3]; [19],42%
same,% control POROC,[3]; [20],43%
same,% control POROC,[3]; [21],60%
same,% control POROC,[3]; [22],73%
same,% control SIDSP,[4]; [7],30%
same,% control SIDSP,[4]; [8],38%
same,% control SIDSP,[4]; [9],42%
same,% control SIDSP,[4]; [10],31%
same,% control SIDSP,[4]; [11],33%
same,% control SIDSP,[4]; [12],48%
same,% control SIDSP,[4]; [13],48%
same,% control SIDSP,[4]; [14],55%
same,% control SIDSP,[4]; [15],63%
same,% control SIDSP,[4]; [16],48%
same,% control SIDSP,[4]; [17],72%
same,% control SIDSP,[4]; [18],79%
same,% control SIDSP,[4]; [19],79%
same,% control SIDSP,[4]; [20],73%
same,% control SIDSP,[4]; [21],83%
same,% control SIDSP,[4]; [22],78%
same,% control SOLNI,[5]; [7],37%
same,% control SOLNI,[5]; [8],35%
same,% control SOLNI,[5]; [9],48%
same,% control SOLNI,[5]; [10],50%
same,% control SOLNI,[5]; [11],62%
same,% control SOLNI,[5]; [12],68%
same,% control SOLNI,[5]; [13],68%
same,% control SOLNI,[5]; [14],77%
same,% control SOLNI,[5]; [15],80%
same,% control SOLNI,[5]; [16],81%
same,% control SOLNI,[5]; [17],81%
same,% control SOLNI,[5]; [18],79%
same,% control SOLNI,[5]; [19],80%
same,% control SOLNI,[5]; [20],81%
same,% control SOLNI,[5]; [21],79%
same,% control SOLNI,[5]; [22],82%
same,% control SORHA,[6]; [23],17%
same,% control SORHA,[6]; [24],7%
same,% control SORHA,[6]; [25],8%
same,% control SORHA,[6]; [26],45%
same,% control SORHA,[6]; [7],40%
same,% control SORHA,[6]; [8],22%
same,% control SORHA,[6]; [9],20%
same,% control SORHA,[6]; [10],84%
same,% control SORHA,[6]; [11],90%
same,% control SORHA,[6]; [12],81%
same,% control SORHA,[6]; [13],72%
same,% control SORHA,[6]; [14],92%
same,% control SORHA,[6]; [15],93%
same,% control SORHA,[6]; [16],91%
same,% control SORHA,[6]; [17],91%
same,% control SORHA,[6]; [18],96%
Random 8-ethoxylate-2-propoxylate of N-methyl glucamine C13/C15 glycidyl ether [SE4],% control ABUTH,[1]; [7],40%
same,% control ABUTH,[1]; [8],48%
same,% control ABUTH,[1]; [9],25%
same,% control ABUTH,[1]; [10],43%
same,% control ABUTH,[1]; [11],42%
same,% control ABUTH,[1]; [12],33%
same,% control ABUTH,[1]; [13],50%
same,% control ABUTH,[1]; [14],52%
same,% control ABUTH,[1]; [15],42%
same,% control ABUTH,[1]; [16],65%
same,% control ABUTH,[1]; [17],58%
same,% control ABUTH,[1]; [18],68%
same,% control ABUTH,[1]; [19],78%
same,% control ABUTH,[1]; [20],80%
same,% control ABUTH,[1]; [21],81%
same,% control ABUTH,[1]; [22],85%
same,% control ECHCG,[2]; [23],12%
same,% control ECHCG,[2]; [24],15%
same,% control ECHCG,[2]; [25],51%
same,% control ECHCG,[2]; [26],53%
same,% control ECHCG,[2]; [7],32%
same,% control ECHCG,[2]; [8],35%
same,% control ECHCG,[2]; [9],68%
same,% control ECHCG,[2]; [10],91%
same,% control ECHCG,[2]; [11],78%
same,% control ECHCG,[2]; [12],83%
same,% control ECHCG,[2]; [13],90%
same,% control ECHCG,[2]; [14],98%
same,% control ECHCG,[2]; [15],90%
same,% control ECHCG,[2]; [16],89%
same,% control ECHCG,[2]; [17],95%
same,% control ECHCG,[2]; [18],98%
same,% control POROC,[3]; [7],7%
same,% control POROC,[3]; [8],2%
same,% control POROC,[3]; [9],13%
same,% control POROC,[3]; [10],35%
same,% control POROC,[3]; [11],8%
same,% control POROC,[3]; [12],18%
same,% control POROC,[3]; [13],43%
same,% control POROC,[3]; [14],46%
same,% control POROC,[3]; [15],28%
same,% control POROC,[3]; [16],36%
same,% control POROC,[3]; [17],45%
same,% control POROC,[3]; [18],50%
same,% control POROC,[3]; [19],42%
same,% control POROC,[3]; [20],47%
same,% control POROC,[3]; [21],63%
same,% control POROC,[3]; [22],81%
same,% control SIDSP,[4]; [7],30%
same,% control SIDSP,[4]; [8],38%
same,% control SIDSP,[4]; [9],38%
same,% control SIDSP,[4]; [10],38%
same,% control SIDSP,[4]; [11],37%
same,% control SIDSP,[4]; [12],38%
same,% control SIDSP,[4]; [13],52%
same,% control SIDSP,[4]; [14],62%
same,% control SIDSP,[4]; [15],50%
same,% control SIDSP,[4]; [16],63%
same,% control SIDSP,[4]; [17],77%
same,% control SIDSP,[4]; [18],76%
same,% control SIDSP,[4]; [19],76%
same,% control SIDSP,[4]; [20],78%
same,% control SIDSP,[4]; [21],78%
same,% control SIDSP,[4]; [22],77%
same,% control SOLNI,[5]; [7],37%
same,% control SOLNI,[5]; [8],32%
same,% control SOLNI,[5]; [9],63%
same,% control SOLNI,[5]; [10],73%
same,% control SOLNI,[5]; [11],65%
same,% control SOLNI,[5]; [12],68%
same,% control SOLNI,[5]; [13],71%
same,% control SOLNI,[5]; [14],78%
same,% control SOLNI,[5]; [15],78%
same,% control SOLNI,[5]; [16],73%
same,% control SOLNI,[5]; [17],80%
same,% control SOLNI,[5]; [18],82%
same,% control SOLNI,[5]; [19],83%
same,% control SOLNI,[5]; [20],83%
same,% control SOLNI,[5]; [21],84%
same,% control SOLNI,[5]; [22],85%
same,% control SORHA,[6]; [23],8%
same,% control SORHA,[6]; [24],8%
same,% control SORHA,[6]; [25],32%
same,% control SORHA,[6]; [26],84%
same,% control SORHA,[6]; [7],23%
same,% control SORHA,[6]; [8],20%
same,% control SORHA,[6]; [9],68%
same,% control SORHA,[6]; [10],89%
same,% control SORHA,[6]; [11],78%
same,% control SORHA,[6]; [12],70%
same,% control SORHA,[6]; [13],90%
same,% control SORHA,[6]; [14],95%
same,% control SORHA,[6]; [15],87%
same,% control SORHA,[6]; [16],89%
same,% control SORHA,[6]; [17],96%
same,% control SORHA,[6]; [18],95%
